Measured values taken from PubChem BioAssay (NCI).
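Values below derive from 48-hour exposures of cells grown in 96-well plates, with endpoints linearly interpolated between the two concentrations bracketing the appropriate inhibition level. Here, GI50 denotes the concentration required for 50% inhibition of growth. Definition used: TGI = concentration required for complete inhibition of growth.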

Columns and labels:
Experiment in all cases: NCI-60 cell line screen, 48 h
SNB-75 CNS = tested on: SNB-75 CNS
UO-31 renal = tested on: UO-31 renal
EKVX NSCLC = tested on: EKVX NSCLC
NCI-H226 lung = tested on: NCI-H226 lung
SF-539 CNS = tested on: SF-539 CNS
T-47D breast = tested on: T-47D breast
BT-549 breast = tested on: BT-549 breast
M14 melanoma = tested on: M14 melanoma
CCRF-CEM leukemia = tested on: CCRF-CEM leukemia
SR leukemia = tested on: SR leukemia

Compound | TGI (SNB-75 CNS) | TGI (UO-31 renal) | TGI (EKVX NSCLC) | TGI (NCI-H226 lung) | TGI (SF-539 CNS) | TGI (T-47D breast) | TGI (BT-549 breast) | TGI (M14 melanoma) | TGI (CCRF-CEM leukemia) | GI50 (SNB-75 CNS) | GI50 (UO-31 renal) | GI50 (EKVX NSCLC) | GI50 (NCI-H226 lung) | GI50 (CCRF-CEM leukemia) | GI50 (SF-539 CNS) | GI50 (T-47D breast) | GI50 (BT-549 breast) | GI50 (M14 melanoma) | TGI (SR leukemia) | GI50 (SR leukemia)
Cc1ccc(C2=Nc3ccccc3SC(c3cccc([N+](=O)[O-])c3)C2)cc1 (configuration not stated) | 38.6 µM | 23 µM | > 100 µM | > 100 µM | 19 µM | 72.5 µM | 83.6 µM | > 100 µM |  |  |  |  |  |  |  |  |  |  |  | 
COc1cc2nc(NCCCCCNC(=O)c3ccco3)nc(N)c2cc1OC | 54.2 µM | > 100 µM | > 100 µM | 95.6 µM | 36.2 µM |  |  | 34.8 µM | 88.2 µM |  |  |  |  |  |  |  |  |  |  | 
CC1CN1c1c(C(=O)/C=C/c2ccccc2)c(-c2ccccc2)nn(C)c1=O (configuration not stated) | 40 µM | 29.1 µM | 48.2 µM | 45.3 µM | 30.7 µM |  |  | 32.8 µM | 37.9 µM |  |  |  |  |  |  |  |  |  |  | 
Nc1ccc(-c2nc3ccccc3[nH]2)c2ccccc12 | 4.39 µM | > 82.8 µM | > 100 µM | 37.9 µM | 17 µM | > 61.6 µM | 22.5 µM | 17.6 µM | > 43.2 µM | 809 nM | 5.32 µM | 14.5 µM | 8440 nM | 2030 nM | 3.11 µM | 11.6 µM | 2390 nM | 2730 nM |  | 
CN1COc2c(n(C)c(=O)[nH]c2=O)C1 | > 100 µM | > 100 µM | > 100 µM | > 100 µM | > 100 µM |  |  | > 100 µM | > 100 µM |  |  |  |  |  |  |  |  |  | > 80.6 µM | 
CCN(CCO)CC(C)Nc1ccc([N+](=O)[O-])c2sc3ccccc3c(=O)c12 (configuration not stated) | 12.6 µM | 1.65 µM | 6.28 µM | 7.15 µM | 19.2 µM | 26.8 µM | 13.1 µM | 3.45 µM | 7.19 µM | 1840 nM | 0.278 µM | 1.67 µM | 1370 nM | 1000 nM | 3.6 µM | 2.68 µM | 2100 nM | 1540 nM |  | 
CCOC1=C2N=C(Cc3ccccc3F)N=C2C(=O)c2ccccc21 | > 100 µM | > 100 µM | > 100 µM | > 100 µM | > 100 µM |  |  | > 100 µM | > 100 µM |  |  |  |  |  |  |  |  |  | > 100 µM | 
CNS(=O)(=O)NNS(=O)(=O)c1ccc(Cl)cc1 |  | > 100 µM | > 100 µM |  | > 100 µM |  |  | > 100 µM | > 100 µM |  |  |  |  |  |  |  |  |  | > 100 µM | 
COc1ccc(C=O)c(NC(=O)C(C)C)c1 | > 100 µM | 82.6 µM | > 100 µM | > 10 µM | > 100 µM |  |  | > 100 µM | > 10 µM |  |  |  |  |  |  |  |  |  |  | 
CCCCCCN(N)C(=O)CC#N | > 100 µM | > 100 µM | > 100 µM | > 100 µM | > 100 µM |  |  | > 100 µM | > 100 µM |  |  |  |  |  |  |  |  |  |  | 
Cc1ccc(NC(=O)c2ccccc2C(=O)O)cc1C | > 100 µM |  | > 100 µM | > 100 µM | > 100 µM | > 100 µM | > 100 µM | > 100 µM |  |  |  |  |  |  |  |  |  |  | > 100 µM | 
N#Cc1ccc(N=Cc2c([O-])ccc3ccccc23)cc1.[C-]#[O+].[C-]#[O+].[Ir] | 24.9 µM | 26.1 µM | 25 µM |  | 29.2 µM |  |  | 19 µM | 7.1 µM | 11000 nM | 13.2 µM | 11.5 µM |  | 1670 nM | 15.2 µM |  |  | 5220 nM | 20.6 µM | 4170 nM
CCOC(=O)C(=O)Nc1cc(Cl)ccc1Cl | > 100 µM | > 100 µM | > 100 µM | > 100 µM | > 100 µM |  |  | > 100 µM | > 100 µM |  |  |  |  |  |  |  |  |  | > 100 µM | 
COc1ccc(C(=O)N2c3ccccc3Sc3ccccc32)c(OC)c1 | > 100 µM | > 100 µM | > 100 µM | > 100 µM | 4.37 µM |  | > 100 µM | > 100 µM | > 100 µM | 209 nM | 0.739 µM | 0.851 µM | 843 nM | 394 nM | 0.333 µM |  | 659 nM | 359 nM | > 100 µM | 562 nM
COc1ccc2c(c1)OC1=C(C(=O)OC1)C2c1cc(OC)c2c(c1)OCO2 (configuration not stated) | > 100 µM | > 100 µM | > 100 µM |  | > 100 µM |  | > 100 µM | 0.0552 µM | > 100 µM | 29.7 nM | 0.689 µM |  | 48.9 nM | 37.8 nM | 0.0333 µM |  |  | 22.3 nM | > 100 µM | 31.3 nM
O=C([CH-]C(=O)c1ccccc1)c1ccccc1.O=C([CH-]C(=O)c1ccccc1)c1ccccc1.[OH-].[OH-].[Ti+4] | > 100 µM | > 100 µM | > 100 µM | > 100 µM | > 100 µM |  |  | > 100 µM |  | 49100 nM | 59.3 µM | 94.9 µM | 58000 nM |  | 29.7 µM |  |  | 36200 nM |  | 
COc1ccc(C2[C@@H](Cl)C(=O)N2c2cc(OC)c(OC)c(OC)c2)cc1Cl (some centres not stated) | 71.2 µM | 32.7 µM | > 100 µM | 34 µM |  |  | 0.61 µM | 0.712 µM | 39.4 µM | 73.4 nM | 1.09 µM | 0.434 µM | 239 nM | 190 nM |  |  | 102 nM | 77.3 nM | > 100 µM | 55.1 nM
O=C(NC1CCCC1=O)c1ccccc1 (configuration not stated) | > 100 µM | > 100 µM | > 100 µM | > 100 µM | > 100 µM |  |  | > 100 µM | > 100 µM |  |  |  |  |  |  |  |  |  | > 100 µM | 
C=C1CCC2[C@@H](CCC3[C@]2(C)CCC[C@]3(C)C(=O)OC)[C@@H]1CC=O (some centres not stated) | > 100 µM | > 100 µM | 77.6 µM | > 100 µM | 37.6 µM |  |  | 40.2 µM | 64.2 µM | 37100 nM | 31.3 µM |  |  |  |  |  |  |  |  | 
